Data taken from PMC12040169 (PLOS Biology, 2025).

Assay: in vitro
Conditions: human, hela cells, % viability

Q: Which viability at 28.5 h, 10 µM does the source give for COc1cccc2cc(C(=O)C3=C(O)C(=O)N(CCN4CCOCC4)C3c3ccc(F)cc3)oc12 (stereo not drawn) [CBK266414] here?
A: 93.3%

Q: For CN1C(=O)COc2ccccc2C/C=C/C[C@@H]2[C@H]1CCCN2S(=O)(=O)c1cccnc1 [CBK292067], which viability at 28.5 h, 10 µM is on record?
A: 102%

Q: Which viability at 28.5 h, 10 µM does the source give for Cc1cc(OC(C)C(=O)Nc2nnc[nH]2)ccc1Cl (stereo not drawn) [CBK269731] here?
A: 87%

Q: Which viability at 28.5 h, 10 µM does the source give for COc1cnn(-c2ccccc2)c(=O)c1N(C)C [CBK020317] here?
A: 94%

Q: With COc1ccc(C(CC(=O)O)c2ccc3c(c2)OCCO3)cc1OC (stereo not drawn) [CBK287121] as the compound, how does the viability at 28.5 h, 10 µM read?
A: 87%

Q: Which viability at 28.5 h, 10 µM does the source give for Cc1cccnc1C(NC(=O)C1CCN(Cc2cccn2C)CC1)c1ccc(Cl)cc1 (stereo not drawn) [CBK148174] here?
A: 110%

Q: For CC(=O)c1ccc2c3c(cccc13)CC(N(C)C)C2 (stereo not drawn) [CBK005691S], which viability at 28.5 h, 10 µM is on record?
A: 95.8%

Q: Which viability at 28.5 h, 10 µM does the source give for CC(CNC(=O)c1cncc(O)c1)NC(=O)c1cncc(O)c1 (stereo not drawn) [CBK278174] here?
A: 89.2%

Q: Which viability at 28.5 h, 10 µM does the source give for CCOC(=O)C1CC1CN1CCN(S(=O)(=O)c2ccc(OCC)c3ncccc23)CC1 (stereo not drawn) [CBK062785] here?
A: 92.9%

Q: Which viability at 28.5 h, 10 µM does the source give for Cc1ccc(S(=O)(=O)N2C[C@H](O)C[C@H]2C(=O)O)cc1 [CBK289276] here?
A: 103%

Q: For CCN(CCCNC(=O)c1cc(-c2cccnc2)nc2ccccc12)c1cccc(C)c1 [CBK294465], which viability at 28.5 h, 10 µM is on record?
A: 86.7%

Q: Which viability at 28.5 h, 10 µM does the source give for CCNc1cncc(-c2ccccc2)n1 [CBK065847] here?
A: 85.5%

Q: With CCc1ccc(OCC(=O)Nc2cccnc2)cc1 [CBK264658] as the compound, how does the viability at 28.5 h, 10 µM read?
A: 96.6%

Q: With Cn1c(CN2CCCC2)nc2cc(NC(=O)C3CCCCC3)ccc21 [CBK307418] as the compound, how does the viability at 28.5 h, 10 µM read?
A: 98.6%

Q: With Cc1c(C(=O)O)sc(S(=O)(=O)N2CCN(C(=O)Cc3ccsc3)CC2)c1C(=O)O [CBK297134] as the compound, how does the viability at 28.5 h, 10 µM read?
A: 89.8%

Q: Which viability at 28.5 h, 10 µM does the source give for Cc1cc(CN2CCN(C(C)c3nc(C(C)(C)C)no3)CC2)no1 (stereo not drawn) [CBK305641] here?
A: 97.7%

Q: Which viability at 28.5 h, 10 µM does the source give for Cc1ccc2c(CC(=O)N3CCNCC3c3cnn(C)c3)coc2c1C (stereo not drawn) [CBK304271C] here?
A: 87%

Q: Which viability at 28.5 h, 10 µM does the source give for Oc1n[nH]c(CSCc2ccccc2Cl)n1 [CBK267427] here?
A: 87.6%

Q: With CNC(=O)C1CCCCN1C(=O)c1cn(CCOC)c2ccccc12 (stereo not drawn) [CBK306308] as the compound, how does the viability at 28.5 h, 10 µM read?
A: 94.8%

Q: For COc1ccc(C2CCN(CC(=O)NC3CCCC3)CC2)cc1 [CBK283565], which viability at 28.5 h, 10 µM is on record?
A: 98%

Q: With CC(=O)N1CCc2nc(CC3CC3)nc(NCCn3ccnn3)c2CC1 [CBK306933] as the compound, how does the viability at 28.5 h, 10 µM read?
A: 94.7%

Q: With CCOC(=O)N1CCC(NC(=O)c2ccc3nc4ccccc4c(=O)n3c2)CC1 [CBK294447] as the compound, how does the viability at 28.5 h, 10 µM read?
A: 81.1%

Q: With c1ccc(COc2ccc(N3CCNCC3)cc2)cc1 [CBK012776C] as the compound, how does the viability at 28.5 h, 10 µM read?
A: 83.5%

Q: With O=C(Nc1snnc1-c1ccc(Cl)cc1)c1cccc(C(F)(F)F)c1 [CBK153246] as the compound, how does the viability at 28.5 h, 10 µM read?
A: 72.5%

Q: For CN1CCCN(C(=O)c2ccc(-c3nc(-c4ccc(C#N)cc4)cnc3N)cc2)CC1 [CBK107140], which viability at 28.5 h, 10 µM is on record?
A: 93.9%

Q: With COc1ccc(C(=O)NC(=S)Nc2ccc(N3CCN(C)CC3)cc2)cc1[N+](=O)[O-] [CBK266098C] as the compound, how does the viability at 28.5 h, 10 µM read?
A: 89%

Q: For Cc1cc(CNC(=O)C(C)n2cnc3ccccc32)on1 (stereo not drawn) [CBK282196], which viability at 28.5 h, 10 µM is on record?
A: 90.7%

Q: Which viability at 28.5 h, 10 µM does the source give for COc1ccc(CN2C(=O)CC3(C2=O)C(=O)N(C)c2ccccc23)cc1OC (stereo not drawn) [CBK075450] here?
A: 91.8%

Q: With c1cnc(NCc2cc3n(n2)CCN(CC2CCCNC2)C3)nc1 (stereo not drawn) [CBK306981] as the compound, how does the viability at 28.5 h, 10 µM read?
A: 102%

Q: Which viability at 28.5 h, 10 µM does the source give for COC(=O)c1c(NC(=S)NCCn2cc(Br)cn2)sc2c1CCC2 [CBK266905] here?
A: 98.2%

Q: Which viability at 28.5 h, 10 µM does the source give for O=C(O)CCC(=O)Nc1ccc(Sc2ccc([N+](=O)[O-])cc2)cc1 [CBK020438] here?
A: 92.5%

Q: For CCN1C(=O)c2ccccc2C(=O)[C@@]2(C)CN(C(C)C)C[C@@H]12 [CBK283480], which viability at 28.5 h, 10 µM is on record?
A: 109%

Q: Which viability at 28.5 h, 10 µM does the source give for CCCc1ccc(C(=O)NCC(C)n2cncn2)o1 (stereo not drawn) [CBK282883] here?
A: 92.5%

Q: With COc1ccc([N+](=O)[O-])cc1NC(=O)c1cc(-c2cccnc2)nc2ccc(C)cc12 [CBK267757] as the compound, how does the viability at 28.5 h, 10 µM read?
A: 86.8%

Q: For O=C(CC1CCCC1)NCCn1nc(-c2cccs2)ccc1=O [CBK283841], which viability at 28.5 h, 10 µM is on record?
A: 91.8%

Q: Which viability at 28.5 h, 10 µM does the source give for Cn1nnc2cc(C(=O)NCCN3CCCCC3CO)ccc21 (stereo not drawn) [CBK307268] here?
A: 84.3%

Q: For CCC(CO)Nc1nccnc1-c1cccc(C(=O)N2CCN(C)CC2)c1 (stereo not drawn) [CBK037087], which viability at 28.5 h, 10 µM is on record?
A: 92.6%

Q: With CNS(=O)(=O)c1c(C)nn(-c2ccccc2)c1C [CBK086715] as the compound, how does the viability at 28.5 h, 10 µM read?
A: 102%

Q: Which viability at 28.5 h, 10 µM does the source give for Cc1cc(NC(=O)N(Cc2cnn(C)c2)CC(C)C)ccc1F [CBK304206] here?
A: 105%

Q: Which viability at 28.5 h, 10 µM does the source give for CC(C)(C)OC(=O)N1CCC(C(=O)NC[C@H](CC(=O)O)c2ccc(Cl)cc2)CC1 [CBK286691] here?
A: 98%

Q: For COc1ccc(Cl)cc1NC(=O)CN(c1cc([N+](=O)[O-])ccc1C)S(C)(=O)=O [CBK266394], which viability at 28.5 h, 10 µM is on record?
A: 114%

Q: Which viability at 28.5 h, 10 µM does the source give for c1ccc(Nc2nc3nonc3n3cnnc23)cc1 [CBK287278] here?
A: 105%

Q: For CCOc1ccc(C(=O)C2=C(O)C(=O)N(CCN(C)C)C2c2cccnc2)cc1Cl (stereo not drawn) [CBK266585], which viability at 28.5 h, 10 µM is on record?
A: 96.5%

Q: For COc1cc(C(=O)Nc2ccc3[nH]ccc3c2)cc(OC)c1OC [CBK159696], which viability at 28.5 h, 10 µM is on record?
A: 92.9%

Q: With COc1ccc(C(=O)Nc2ccc(N3CCNCC3)nc2)cc1 [CBK029434T] as the compound, how does the viability at 28.5 h, 10 µM read?
A: 111%
